Five compounds from patent US10590143B2, “Herbicidally active (alkynyl-phenyl)-substituted cyclic dione compounds and derivatives thereof” (Syngenta Limited, priority 2013, dated 2020) can be followed below.

Where two headings read alike, the source gives them in different places.

Common to all, as to experiment: Biological Example 1 glasshouse assay for herbicidal activity
Assay type in all cases: in vivo

One assay has as its system Setaria faberi (SETFA). The following applies: 312 h, 13 days after application, read-out: percentage phytotoxicity SETFA. The procedure: (§1) Seeds of a variety of test plant species were sown in standard soil** in pots. After cultivation for one day (pre-emergence) or after 8 days cultivation (post-emergence) under controlled conditions in a glasshouse (at 24/16° C., day/night; 14 hours light; 65% humidity), the plants were sprayed with an aqueous spray solution derived from the formulation of the technical active ingredient (the test herbicide) in acetone/water (50:50) solution containing 0.5% Tween 20 (polyoxyethylene sorbitan monolaurate, CAS Reg. No. 9005-64-5). The test plants were then grown on under controlled conditions in a glasshouse (at 24/16° C., day/night; 14 hours light; 65% humidity) and watered twice daily. 13 Days after application of the test herbicide, for pre- and post-emergence, the test was evaluated visually for percentage phytotoxicity to each plant (where 100%=total damage to plant; 0%=no damage to plant). Generally, each test herbicide is only tested on 1 plant per plant species for each application rate tested and for each application timing. **The “standard soil” in Biological Example 1 is usually a “sand” or “sandy loam” type of soil.
(§2) Dicotyledonous weeds: ABUTH=Abutilon theophrasti; AMARE=Amaranthus retroflexus. Grassy monocotyledonous weeds: SETFA=Setaria faberi; ALOMY=Alopecurus myosuroides; ECHCG=Echinochloa crus-galli; ZEAMX=Zea mays (corn, maize, e.g. volunteer corn).

In assay [1] the test system is Amaranthus retroflexus (AMARE). Conditions: Amaranthus retroflexus, 312 h, 13 days after application, read-out: percentage phytotoxicity AMARE. The procedure: as §1, §2
The subject of assay [2] is Echinochloa crus-galli (ECHCG). Conditions: Echinochloa crus-galli, 312 h, 13 days after application, read-out: percentage phytotoxicity ECHCG. As for the experimental part:
as §1, §2

Assay [3] relates to Zea mays (ZEAMX, corn, maize, e.g. volunteer corn). The following applies: Zea mays, 312 h, 13 days after application, read-out: percentage phytotoxicity ZEAMX. As for the experimental part:
as §1, §2

For assay [4], the system named is Abutilon theophrasti (ABUTH). Conditions: 312 h, 13 days after application, read-out: percentage phytotoxicity ABUTH. As for the experimental part: as §1, §2
Assay [5] concerns Alopecurus myosuroides (ALOMY). Conditions: 312 h, 13 days after application, read-out: percentage phytotoxicity ALOMY. As for the experimental part: as §1, §2

Take `CC#Cc1cc(F)c(C2C(=O)C3CCC(C)(C2=O)C3(C)C)c(OCC(F)(F)F)c1` (stereo not drawn) [Compound A9]: the pest or weed control at 250 g/ha with Setaria faberi (SETFA) (post-emergence, post-emergence) was determined as 20%; in assay [1] (post-emergence, post-emergence) it was 0%; in assay [2] (post-emergence, post-emergence) it was 10%; in assay [3] (post-emergence, post-emergence) it was 20%; in assay [4] (post-emergence, post-emergence) it was 0%; in assay [5] (post-emergence), 10%.

`CC#Cc1cc(F)c(C2=C(OC(=O)OCC)C3CCC(C3)C2=O)c(OC)c1` (stereo not drawn) [Compound P2]: the pest or weed control at 8 g/ha is 60% with Setaria faberi (SETFA) (post-emergence, post-emergence); 20% in assay [1] (post-emergence, post-emergence); 90% in assay [2] (post-emergence, post-emergence); 90% in assay [3] (post-emergence, post-emergence); 10% in assay [4] (post-emergence, post-emergence); 70% in assay [5] (post-emergence). The pest or weed control at 30 g/ha amounted to 90% with Setaria faberi (SETFA) (post-emergence, post-emergence); 50% with Setaria faberi (SETFA) (pre-emergence, pre-emergence); 20% in assay [1] (post-emergence, post-emergence); 40% in assay [1] (pre-emergence, pre-emergence); 100% in assay [2] (post-emergence, post-emergence); 80% in assay [2] (pre-emergence, pre-emergence). Besides, the pest or weed control at 30 g/ha turned out to be 100% in assay [3] (post-emergence, post-emergence); 90% in assay [3] (pre-emergence, pre-emergence); 30% in assay [4] (post-emergence, post-emergence); 20% in assay [4] (pre-emergence, pre-emergence); 90% in assay [5] (post-emergence); 80% in assay [5] (pre-emergence). Also, the pest or weed control at 250 g/ha came out at 100% in the assay with Setaria faberi (SETFA) (post-emergence, post-emergence); 90% in the assay with Setaria faberi (SETFA) (pre-emergence, pre-emergence); 40% in assay [1] (post-emergence, post-emergence); 70% in assay [1] (pre-emergence, pre-emergence); 100% in assay [2] (post-emergence, post-emergence); 100% in assay [2] (pre-emergence, pre-emergence). The pest or weed control at 250 g/ha in assay [3] (post-emergence, post-emergence) is 100%; in assay [3] (pre-emergence, pre-emergence), 100%; in assay [4] (post-emergence, post-emergence), 80%; in assay [4] (pre-emergence, pre-emergence) it was 60%; in assay [5] (post-emergence) it was 90%; in assay [5] (pre-emergence), 100%.

As to `C#Cc1cc(F)c(C2C(=O)C3CCC(C3)C2=O)c(OC)c1` (stereo not drawn) [Compound B1], the pest or weed control at 8 g/ha stood at 70% with Setaria faberi (SETFA) (post-emergence, post-emergence); 40% with Setaria faberi (SETFA) (pre-emergence, pre-emergence); 0% in assay [1] (post-emergence, post-emergence); 30% in assay [1] (pre-emergence, pre-emergence); 20% in assay [2] (post-emergence, post-emergence); 50% in assay [2] (pre-emergence, pre-emergence). In addition, the pest or weed control at 8 g/ha came to 80% in assay [3] (post-emergence, post-emergence); 0% in assay [3] (pre-emergence, pre-emergence); 50% in assay [4] (post-emergence, post-emergence); 10% in assay [4] (pre-emergence, pre-emergence); 0% in assay [5] (post-emergence); 0% in assay [5] (pre-emergence). The pest or weed control at 30 g/ha is 70% with Setaria faberi (SETFA) (post-emergence, post-emergence); 60% in the assay with Setaria faberi (SETFA) (pre-emergence, pre-emergence); 0% in assay [1] (post-emergence, post-emergence); 50% in assay [1] (pre-emergence, pre-emergence); 70% in assay [2] (post-emergence, post-emergence); 50% in assay [2] (pre-emergence, pre-emergence). Besides, the pest or weed control at 30 g/ha in assay [3] (post-emergence, post-emergence) worked out at 90%; in assay [3] (pre-emergence, pre-emergence) it was 70%; in assay [4] (post-emergence, post-emergence), 50%; in assay [4] (pre-emergence, pre-emergence) it was 20%; in assay [5] (post-emergence), 20%; in assay [5] (pre-emergence) it was 10%. The pest or weed control at 250 g/ha in the assay on Setaria faberi (SETFA) (post-emergence, post-emergence) worked out at 90%; in the assay with Setaria faberi (SETFA) (pre-emergence, pre-emergence) it was 100%; in assay [1] (post-emergence, post-emergence), 20%; in assay [1] (pre-emergence, pre-emergence) it was 30%; in assay [2] (post-emergence, post-emergence), 100%; in assay [2] (pre-emergence, pre-emergence) it was 90%. The pest or weed control at 250 g/ha stood at 100% in assay [3] (post-emergence, post-emergence); 100% in assay [3] (pre-emergence, pre-emergence); 70% in assay [4] (post-emergence, post-emergence); 0% in assay [4] (pre-emergence, pre-emergence); 80% in assay [5] (post-emergence); 90% in assay [5] (pre-emergence).

As to `CC#Cc1cc(F)c(C2C(=O)C3CCC(C3)C2=O)c(OCC)c1` (stereo not drawn) [Compound A4], the pest or weed control at 30 g/ha in the assay on Setaria faberi (SETFA) (post-emergence, post-emergence) worked out at 70%; in the assay with Setaria faberi (SETFA) (pre-emergence, pre-emergence), 50%; in assay [1] (post-emergence, post-emergence) it was 20%; in assay [1] (pre-emergence, pre-emergence) it was 40%; in assay [2] (post-emergence, post-emergence), 90%; in assay [2] (pre-emergence, pre-emergence), 90%. The pest or weed control at 30 g/ha is 100% in assay [3] (post-emergence, post-emergence); 80% in assay [3] (pre-emergence, pre-emergence); 10% in assay [4] (post-emergence, post-emergence); 20% in assay [4] (pre-emergence, pre-emergence); 80% in assay [5] (post-emergence); 70% in assay [5] (pre-emergence). In addition, the pest or weed control at 250 g/ha is 100% with Setaria faberi (SETFA) (post-emergence, post-emergence); 70% in the assay with Setaria faberi (SETFA) (pre-emergence, pre-emergence); 50% in assay [1] (post-emergence, post-emergence); 50% in assay [1] (pre-emergence, pre-emergence); 100% in assay [2] (post-emergence, post-emergence); 100% in assay [2] (pre-emergence, pre-emergence). Moreover, the pest or weed control at 250 g/ha in assay [3] (post-emergence, post-emergence) turned out to be 100%; in assay [3] (pre-emergence, pre-emergence), 100%; in assay [4] (post-emergence, post-emergence), 30%; in assay [4] (pre-emergence, pre-emergence), 30%; in assay [5] (post-emergence), 90%; in assay [5] (pre-emergence), 90%.

On to `CC#Cc1cc(F)c(C2C(=O)C3CCC(C)(C2=O)C3(C)C)c(OCCOC)c1` (stereo not drawn) [Compound A10], for which the pest or weed control at 250 g/ha with Setaria faberi (SETFA) (post-emergence, post-emergence) amounted to 0%; in assay [1] (post-emergence, post-emergence) it was 0%; in assay [2] (post-emergence, post-emergence), 0%; in assay [3] (post-emergence, post-emergence) it was 40%; in assay [4] (post-emergence, post-emergence) it was 0%; in assay [5] (post-emergence), 0%.
